Earlier results in US20110064711A1, “COMPOSITIONS CONTAINING COENZYME Q-10 AND AN ANTIOXIDANT” (priority 2009, published 2011).

Conditions: exposure to ambient air; general statement, time not given

reduced form of CoQ10 on a weight basis after exposure to air: below 20%
SMILES: COc1c(O)c(C)c(C/C=C(\C)CC/C=C(\C)CC/C=C(\C)CC/C=C(\C)CC/C=C(\C)CC/C=C(\C)CC/C=C(\C)CC/C=C(\C)CC/C=C(\C)CCC=C(C)C)c(O)c1OC [Commercial reduced CoQ10 powder]
